Test results reported in patent publication US20230167467A1, “METHODS AND COMPOSITIONS FOR THE PRODUCTION OF ISOBUTENE” (University of Alaska Anchorage, priority 2020, published 2023).

Assays:
[1] = tested on: Engineered strains of E. coli; format: cell-based
[2] = purified MVD on 3-HIV; cited from earlier work
[3] = after solvent exposure, vs positive control

With `CC(C)CO` [isobutanol] the “expression of RNAse adapter protein rapZ” value [1] was “downregulation”, the “expression of accBC (fatty acid biosynthesis)” value [1] was “downregulated” and the “expression of adiA” value [1] was “downregulated”. For the same molecule, the “expression of bssRS (decreasing biofilm material)” value [1] was “upregulated”, the “expression of chaperone genes groLS and dnaJK” value [1] was “increased expression” and the “expression of gadABCE (acid resistance via GABA production)” value [1] was “downregulated”. The “expression of gatY and marCRAB loci” value [1] was “upregulation”, the “expression of glpABC (glycerol to glycerone phosphate)” value [1] was “increased in expression” and the “expression of heat shock proteins and chaperones hslJORUV” value [1] was “upregulation”. The “expression of ibpAB and clpAB (protein protection and repair)” value [1] was “increased”, the “expression of marA” value [1] was “upregulated” and the “change in expression of gene adiA” value [1, 3] was −2.97 ± 0.87. The “change in expression of gene adiC” value [1, 3] was −2.56 ± 1.03, the “change in expression of gene adiY” value [1, 3] was −0.17 ± 0.65 and the “change in expression of gene bhsA” value [1, 3] was 4.78 ± 0.60. The “change in expression of gene bssR” value [1, 3] was −1.75 ± 1.29, the “change in expression of gene bssS” value [1, 3] was 4.08 ± 0.84 and the “change in expression of gene clpA” value [1, 3] was 2.07 ± 0.63. For the same molecule, the “change in expression of gene clpB” value [1, 3] was 4.51 ± 0.69, the “change in expression of gene clpP” value [1, 3] was 0.38 ± 0.59 and the “change in expression of gene coaA” value [1, 3] was −3.09 ± 0.90. For the same molecule, the “change in expression of gene coaD” value [1, 3] was −1.68 ± 0.97, the “change in expression of gene cspA” value [1, 3] was −4.88 ± 0.58 and the “change in expression of gene cspB” value [1, 3] was −5.73 ± 1.38. The “change in expression of gene cspC” value [1, 3] was −3.36 ± 0.94, the “change in expression of gene cspD” value [1, 3] was 1.73 ± 0.58 and the “change in expression of gene cspE” value [1, 3] was −1.94 ± 0.64. The “change in expression of gene cspF” value [1, 3] was −3.40 ± 1.07, the “change in expression of gene dhaK” value [1, 3] was 1.05 ± 0.59 and the “change in expression of gene dhaL” value [1, 3] was −0.04 ± 0.64. The “change in expression of gene dnaJ” value [1, 3] was 3.71 ± 0.69, the “change in expression of gene dnaK” value [1, 3] was 4.53 ± 0.66 and the “change in expression of gene fabA” value [1, 3] was −2.84 ± 0.81. The “change in expression of gene fabB” value [1, 3] was −0.39 ± 0.68, the “change in expression of gene fabD” value [1, 3] was −2.33 ± 0.53 and the “change in expression of gene flgA” value [1, 3] was −3.05 ± 1.60. The “change in expression of gene flgB” value [1, 3] was −8.74 ± 1.90, the “change in expression of gene flgC” value [1, 3] was −8.87 ± 2.24 and the “change in expression of gene flgD” value [1, 3] was −6.75 ± 2.03. The “change in expression of gene flgE” value [1, 3] was −4.68 ± 1.21, the “change in expression of gene flgF” value [1, 3] was −5.18 ± 1.70 and the “change in expression of gene flgG” value [1, 3] was −6.73 ± 1.69. The “change in expression of gene flgH” value [1, 3] was −4.17 ± 1.80, the “change in expression of gene gabD” value [1, 3] was −2.21 ± 1.41 and the “change in expression of gene gabP” value [1, 3] was −1.47 ± 1.32. For the same molecule, the “change in expression of gene gabT” value [1, 3] was −1.57 ± 1.34, the “change in expression of gene gadA” value [1, 3] was −0.71 ± 0.69 and the “change in expression of gene gadB” value [1, 3] was 0.96 ± 0.79. The “change in expression of gene gadC” value [1, 3] was 1.56 ± 0.80, the “change in expression of gene gadE” value [1, 3] was −0.46 ± 0.60 and the “change in expression of gene gadW” value [1, 3] was −4.10 ± 0.99. For the same molecule, the “change in expression of gene gadX” value [1, 3] was −2.01 ± 0.57, the “change in expression of gene gadY” value [1, 3] was −3.37 ± 0.80 and the “change in expression of gene glpA” value [1, 3] was 5.44 ± 0.87. The “change in expression of gene glpB” value [1, 3] was 2.96 ± 0.64, the “change in expression of gene glpC” value [1, 3] was 2.92 ± 0.81 and the “change in expression of gene groL” value [1, 3] was 4.05 ± 0.57. For the same molecule, the “change in expression of gene groS” value [1, 3] was 4.43 ± 0.50, the “change in expression of gene hchA” value [1, 3] was 3.17 ± 0.60 and the “change in expression of gene hslJ” value [1, 3] was 1.12 ± 0.66. The “change in expression of gene hslO” value [1, 3] was 1.72 ± 0.65, the “change in expression of gene hslR” value [1, 3] was 2.12 ± 0.65 and the “change in expression of gene hslU” value [1, 3] was 1.52 ± 0.56. For the same molecule, the “change in expression of gene hslV” value [1, 3] was 0.88 ± 0.62, the “change in expression of gene ibpA” value [1, 3] was 5.74 ± 1.21 and the “change in expression of gene ibpB” value [1, 3] was 6.79 ± 1.50. The “change in expression of gene lipA” value [1, 3] was 0.31 ± 0.60, the “change in expression of gene lipB” value [1, 3] was −2.33 ± 0.69 and the “change in expression of gene narG” value [1, 3] was 2.47 ± 0.65. The “change in expression of gene narH” value [1, 3] was 1.99 ± 0.62, the “change in expression of gene narI” value [1, 3] was 0.99 ± 0.94 and the “change in expression of gene narJ” value [1, 3] was 1.39 ± 0.69. The “change in expression of gene narK” value [1, 3] was −0.93 ± 0.90, the “change in expression of gene potA” value [1, 3] was −5.42 ± 0.87 and the “change in expression of gene potB” value [1, 3] was −2.50 ± 1.32. The “change in expression of gene potC” value [1, 3] was −2.97 ± 1.28, the “change in expression of gene pspA” value [1, 3] was 5.48 ± 0.55 and the “change in expression of gene pspB” value [1, 3] was 3.26 ± 0.68. For the same molecule, the “change in expression of gene rpoA” value [1, 3] was −0.58 ± 0.44, the “change in expression of gene rpoB” value [1, 3] was −0.72 ± 0.40 and the “change in expression of gene rpoC” value [1, 3] was −1.03 ± 0.39. For the same molecule, the “change in expression of gene rpoD” value [1, 3] was 1.30 ± 0.70, the “change in expression of gene rpoE” value [1, 3] was −1.10 ± 0.62 and the “change in expression of gene rpoH” value [1, 3] was 1.72 ± 0.52. The “change in expression of gene rpoN” value [1, 3] was −1.50 ± 0.49, the “change in expression of gene rpoS” value [1, 3] was 1.73 ± 0.47 and the “change in expression of gene rpoZ” value [1, 3] was −0.91 ± 0.54. For the same molecule, the “change in expression of gene spy” value [1, 3] was 8.88 ± 0.87, the “change in expression of gene tatA” value [1, 3] was −2.04 ± 0.52 and the “change in expression of gene tatB” value [1, 3] was −2.87 ± 0.60. The “change in expression of gene tatC” value [1, 3] was −4.38 ± 1.21, the “change in expression of gene tatD” value [1, 3] was −4.11 ± 1.20 and the “change in expression of gene tatE” value [1, 3] was 0.70 ± 0.64. The “number of genes with significant changes in expression” value ([1]; vs control, Bon Ferroni corrected p-value<0.05) was 831 genes.

B1: MVD: mevalonate diphosphate decarboxylase of Saccharomyces cerevisiae, enzyme and gene/transcript (optimized gene SEQ ID NO:2) (protein)
chain: MTVYTASVTAPVNIATLKYWGKRDTKLNLPTNSSISVTLSQDDLRTLTSAATAPEFERDTLWLNGEPHSIDNERTQNCLRDLRQLRKEMESKDASLPTLSQWKLHIVSENNFPTAAGLASSAAGFAALVSAIAKLYQLPQSTSEISRIARKGSGSACRSLFGGYVAWEMGKAEDGHDSMAVQIADSSDWPQMKACVLVVSDIKKDVSSTQGMQLTVATSELFKERIEHVVPKRFEVMRKAIVEKDFATFAKETMMDSNSFHATCLDSFPPIFYMNDTSKRIISWCHTINQFYGETIVAYTFDAGPNAVLYYLAENESKLFAFIYKLFGSVPGWDKKFTTEQLEAFNHQFESSNFTARELDLELQKDVARVILTQVGSGPQETNESLIDAKTGLPKE
modifications: optimized gene; MVD optimized gene sequence
In the case of B1, the Isobutene production [2] is listed as 6.44±0.95 pmol*min-1 *mg protein-1.
